Reference: patent publication US8361996B2, “Imidazolyl substituted steroidal and indan-1-one derivatives” (Council of Scientific and Industrial Research, priority 2005, dated 2013)
pIC50: −log10 of the molar value. Like-named read-outs stand apart in the source and are kept apart here.

Legend:
aromatase (CYP19) = target: T1, aromatase (CYP19) (Homo sapiens, UniProt P11511); assay: Inhibition of aromatase, human placental microsomes, 3H2O release; assay type: biochemical
T1 construct: The enzyme was obtained from the microsomal fraction of freshly delivered human term placental tissue; from tissue; host or cells: human term placenta, microsomal fraction
T1 sequence (P11511 1-503): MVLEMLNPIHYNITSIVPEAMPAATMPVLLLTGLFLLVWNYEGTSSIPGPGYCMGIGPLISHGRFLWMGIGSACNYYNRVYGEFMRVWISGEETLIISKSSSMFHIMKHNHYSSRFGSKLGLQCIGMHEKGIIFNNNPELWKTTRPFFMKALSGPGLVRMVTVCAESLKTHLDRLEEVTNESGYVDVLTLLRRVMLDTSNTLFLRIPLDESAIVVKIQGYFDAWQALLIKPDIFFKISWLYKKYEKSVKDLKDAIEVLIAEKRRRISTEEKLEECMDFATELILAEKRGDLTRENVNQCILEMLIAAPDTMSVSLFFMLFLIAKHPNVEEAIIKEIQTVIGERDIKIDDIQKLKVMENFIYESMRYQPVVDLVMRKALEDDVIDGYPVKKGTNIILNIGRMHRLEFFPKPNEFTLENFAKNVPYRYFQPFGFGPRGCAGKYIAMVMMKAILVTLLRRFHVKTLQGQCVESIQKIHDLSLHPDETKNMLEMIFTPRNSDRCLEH

[1] = Substrate: 1β 3H-androstenedione/androstenedione 500 nm
[2] = human placental microsomes and [1β,2β-3H] testosterone

Row | melting point | SMILES | Inhibition on CYP19a RP: Relative potency; relative to aminoglutethimide (=1) (aromatase (CYP19); [1]) | aromatase inhibitory activity (in words) (aromatase (CYP19); [2]) | further results
1 | 76 to 78 °C | O=C1/C(=C/c2ccccc2OCCCn2ccnc2)Cc2ccccc21 [Compound 4, 2-[2-(3-Imidazol-1-yl-propoxy)-benzylidene]-indan-1-one] | 26.6 | good aromatase inhibitory activity | –
2 | 197 to 199 °C | CC(=O)O[C@H]1CC[C@@]2(C)C(=CC[C@H]3[C@@H]4C[C@H](n5ccnc5)[C@H](OC(C)=O)[C@@]4(C)CC[C@@H]32)C1 | – | – | –
3 | 97 to 99 °C | CC(=O)O[C@H]1CC[C@@]2(C)C(=CC[C@H]3[C@@H]4CC(=Cc5cccc(OCCCn6ccnc6)c5)[C@H](OC(C)=O)[C@@]4(C)CC[C@@H]32)C1 | – | – | –
4 | 123 to 127 °C | COc1cc(/C=C2\Cc3ccccc3C2=O)ccc1OCCCn1ccnc1 [Compound 8, 2-[4-(3-Imidazol-1-ylpropoxy)-3-methoxybenzylidene)indan-1-one] | 54.1 | good aromatase inhibitory activity | pIC50 (aromatase (CYP19); human placental microsomes and [1β,2β-3H] testosterone, read-out: IC50 for the aromatase inhibitory activity): 6.26
5 | – | COc1cc(/C=C2\C[C@H]3[C@@H]4CC=C5C[C@@H](O)CC[C@]5(C)[C@H]4CC[C@]3(C)[C@H]2O)ccc1OCCCn1ccnc1 [Compound 14, 16-[4-{3-(Imidazol-1-yl)propoxy}-3-methoxybenzylidene]-5-androstene-3β,17β-diol] | 12.4 | significant aromatase inhibitory activity | –
6 | – | C[C@]12CCC(=O)C=C1CCC1C2CC[C@]2(C)C(=O)/C(=C/c3cccc(OCCCn4ccnc4)c3)CC12 (stereo partly drawn) [Compound 22, 16-[3-{3-(imidazol-1-yl)propoxy}benzylidene]-4-androstene-3,17-dione] | – | significant aromatase inhibitory activity | –
7 | 48 to 50 °C | O=C1/C(=C/c2cccc(OCCCn3ccnc3)c2)Cc2ccccc21 [Compound 2, 2-[3-(3-Imidazol-1-yl-propoxy)-benzylidene]-indan-1-one] | 42.5 | good aromatase inhibitory activity | –
8 | 218 to 220 °C | O=C1C(=Cc2cccc(OCCn3ccnc3)c2)Cc2ccccc21 [Compound 10, 2-[3-(2-Imidazol-1-ylethoxy)-benzylidene]indan-1-one] | – | – | –
9 | 211 to 212 °C | C[C@]12CC[C@H](O)CC1=CC[C@@H]1[C@@H]2CC[C@]2(C)C(=O)C(=Cc3cccc(OCCCn4ccnc4)c3)C[C@@H]12 | – | – | –
10 | 163 to 168 °C | COc1cc(C=C2C[C@H]3[C@@H]4CC=C5C[C@@H](OC(C)=O)CC[C@]5(C)[C@H]4CC[C@]3(C)[C@H]2OC(C)=O)ccc1OCCCn1ccnc1 | – | – | –
11 | 176 to 180 °C | COc1ccc(/C=C2\Cc3ccccc3C2=O)cc1OCCCn1ccnc1 [Compound 6, 2-[3-(3-Imidazol-1-ylpropoxy)-4-methoxybenzylidene)indan-1-one] | 22.5 | good aromatase inhibitory activity | –
12 | 109 to 111 °C | COc1cc(C=C2C[C@H]3[C@@H]4CC=C5C[C@@H](OC(C)=O)CC[C@]5(C)[C@H]4CC[C@]3(C)C2=O)ccc1OCCCn1ccnc1 | – | – | –
13 | 199 to 201 °C | COc1cc(C=C2C[C@H]3[C@@H]4CC=C5C[C@@H](O)CC[C@]5(C)[C@H]4CC[C@]3(C)C2=O)ccc1OCCCn1ccnc1 | – | – | –
14 | 285 to 287 °C | C[C@]12CC[C@H]3[C@@H](CC=C4C[C@@H](O)CC[C@@]43C)[C@@H]1C[C@H](n1ccnc1)[C@@H]2O | – | – | –

Row | SMILES | melting point | Inhibition on CYP19a RP: Relative potency; relative to aminoglutethimide (=1) (aromatase (CYP19); [1]) | aromatase inhibitory activity (in words) (aromatase (CYP19); [2]) | further results
15 | C[C@]12CC[C@H]3[C@@H](/C(=N\OCCCn4ccnc4)C=C4C[C@@H](O)CC[C@@]43C)[C@@H]1CC[C@@H]2O [Compound 25, 7-[O-{3-(Imidazol-1-yl)propyl}oximino]-5-androstene-3β,17β-diol] | 205 to 206 °C | IC50: 12 μM RP: 2.5 | significant aromatase inhibitory activity | pIC50 (aromatase (CYP19)): 4.92
16 | C[C@]12CC[C@H](O)CC1=CC[C@@H]1[C@@H]2CC[C@]2(C)C(=O)[C@@H](n3ccnc3)C[C@@H]12 [Compound 27, 16β-(Imidazol-1-yl)-17-oxo-5-androsten-3β-ol] | 249 to 251 °C | IC50: 3.3 Mm RP: 9.0 | significant aromatase inhibitory activity | –
17 | C[C@]12CC[C@H]3[C@@H](CC=C4C[C@@H](O)CC[C@@]43C)[C@@H]1C/C(=C\c1cccc(OCCCn3ccnc3)c1)[C@@H]2O [Compound 20, 16-[3-{3-(imidazol-1-yl)propoxy}benzylidene]-5-androstene-3β,17β-diol] | 133 to 135 °C | – | significant aromatase inhibitory activity | Inhibition on CYP19a RP: Relative potency; relative to aminoglutethimide (=1) (aromatase (CYP19)): IC50: 9.1 μM RP: 3.3; pIC50 (aromatase (CYP19); Substrate: 1β 3H-androstenedione/androstenedione 500 nm, read-out: Inhibition on CYP19a IC50): 5.04
18 | CC(=O)O[C@H]1CC[C@@]2(C)C(=C/C(=N\OCCCn3ccnc3)[C@H]3[C@@H]4CC[C@H](OC(C)=O)[C@@]4(C)CC[C@@H]32)C1 [Compound 24, 7-[O-{3-(imidazol-1-yl)propyl}oximino]-5-androstene-3β,17β-diol diacetate] | 180 to 182 °C | IC50: 3.1 μM RP: 9.6 | significant aromatase inhibitory activity | pIC50 (aromatase (CYP19)): 5.51
